Legend:
Assay type in all cases: functional, cell-based
Ca-Ski = assay: cells; settings: Homo sapiens;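 note: cell viability assay measuring inhibition of Ca-Ski cell growth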
Description: SANGER: Inhibition of human Ca-Ski cell growth in a cell viability assay.

Calu-1 = assay: SANGER: Inhibition of human Calu-1 cell growth in a cell viability assay.
D-247MG = assay: cells; settings: Homo sapiens
Description: SANGER: Inhibition of human D-247MG cell growth in a cell viability assay.

D-336MG = assay: cells; settings: Homo sapiens
Description: SANGER: Inhibition of human D-336MG cell growth in a cell viability assay.

Daudi = assay: cells; settings: Homo sapiens;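 note: growth inhibition of Daudi cells, read out by a viability assay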
Description: SANGER: Inhibition of human Daudi cell growth in a cell viability assay.

EFE-184 = assay: cells; settings: Homo sapiens
Description: SANGER: Inhibition of human EFE-184 cell growth in a cell viability assay.

EFO-27 = assay: cells; settings: Homo sapiens;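 note: growth inhibition of EFO-27 cells, read out with a cell viability assay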
Description: SANGER: Inhibition of human EFO-27 cell growth in a cell viability assay.

HCC1937 = assay: cells; settings: Homo sapiens;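 note: growth inhibition measured with a cell viability read-out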
Description: SANGER: Inhibition of human HCC1937 cell growth in a cell viability assay.

HT-1376 = assay: cells; settings: Homo sapiens
Description: SANGER: Inhibition of human HT-1376 cell growth in a cell viability assay.

HT-29 = assay: cells; settings: Homo sapiens;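 note: growth inhibition of human HT-29 cells, read out by a cell viability assay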
Description: SANGER: Inhibition of human HT-29 cell growth in a cell viability assay.

HuP-T3 = assay: cells; settings: Homo sapiens;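 note: HuP-T3 cell growth inhibition, read out with a cell viability assay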
Description: SANGER: Inhibition of human HuP-T3 cell growth in a cell viability assay.

IGR-1 = assay: cells; settings: Homo sapiens;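 note: growth inhibition of human IGR-1 cells, read out with a cell viability assay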
Description: SANGER: Inhibition of human IGR-1 cell growth in a cell viability assay.

KARPAS-422 = assay: cells; settings: Homo sapiens
Description: SANGER: Inhibition of human KARPAS-422 cell growth in a cell viability assay.

KYSE-510 = assay: cells; settings: Homo sapiens;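 note: cell viability readout used to measure how strongly growth of the cell line is suppressed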
Description: SANGER: Inhibition of human KYSE-510 cell growth in a cell viability assay.

KYSE-520 cell line = assay: cells; settings: Homo sapiens;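 note: growth inhibition of human KYSE-520 cells, read out with a viability assay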
Description: SANGER: Inhibition of human KYSE-520 cell growth in a cell viability assay.

L-540 = assay: cells; settings: Homo sapiens;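 note: growth inhibition of the human L-540 cell line, read out with a viability assay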
Description: SANGER: Inhibition of human L-540 cell growth in a cell viability assay.

LB996-RCC = assay: cells; settings: Homo sapiens
Description: SANGER: Inhibition of human LB996-RCC cell growth in a cell viability assay.

LU-165 = assay: cells; settings: Homo sapiens
Description: SANGER: Inhibition of human LU-165 cell growth in a cell viability assay.

MDA-MB-134-VI = assay: cells; settings: Homo sapiens
Description: SANGER: Inhibition of human MDA-MB-134-VI cell growth in a cell viability assay.

MDA-MB-468 = assay: cells; settings: Homo sapiens
Description: SANGER: Inhibition of human MDA-MB-468 cell growth in a cell viability assay.

MG-63 = assay: cells; settings: Homo sapiens;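 note: growth inhibition of human MG-63 cells, read out with a cell viability assay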
Description: SANGER: Inhibition of human MG-63 cell growth in a cell viability assay.

NCI-H1694 = assay: cells; settings: Homo sapiens;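 note: cell viability assay measuring inhibition of growth in human NCI-H1694 cells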
Description: SANGER: Inhibition of human NCI-H1694 cell growth in a cell viability assay.

NCI-H1703 = assay: cells; settings: Homo sapiens;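 note: growth inhibition of NCI-H1703 cells, read out via a cell viability assay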
Description: SANGER: Inhibition of human NCI-H1703 cell growth in a cell viability assay.

NCI-H1734 = assay: cells; settings: Homo sapiens;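 note: growth inhibition of human NCI-H1734 cells, read out with a cell viability assay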
Description: SANGER: Inhibition of human NCI-H1734 cell growth in a cell viability assay.

NCI-H1755 = assay: cells; settings: Homo sapiens;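 note: cell viability readout used to measure growth inhibition of NCI-H1755 cells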
Description: SANGER: Inhibition of human NCI-H1755 cell growth in a cell viability assay.

NCI-H2009 = assay: cells; settings: Homo sapiens;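 note: cell viability assay measuring inhibition of NCI-H2009 cell growth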
Description: SANGER: Inhibition of human NCI-H2009 cell growth in a cell viability assay.

NCI-H2030 = assay: cells; settings: Homo sapiens;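 note: growth inhibition of human NCI-H2030 cells, read out by a cell viability assay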
Description: SANGER: Inhibition of human NCI-H2030 cell growth in a cell viability assay.

NCI-H2052 = assay: cells; settings: Homo sapiens;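 note: growth inhibition of NCI-H2052 cells, read out with a cell viability assay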
Description: SANGER: Inhibition of human NCI-H2052 cell growth in a cell viability assay.

NCI-H2141 = assay: cells; settings: Homo sapiens;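 note: growth inhibition of human NCI-H2141 cells, read out with a cell viability assay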
Description: SANGER: Inhibition of human NCI-H2141 cell growth in a cell viability assay.

NCI-H2342 = assay: cells; settings: Homo sapiens;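 note: growth inhibition of the cancer cell line, determined with a cell viability assay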
Description: SANGER: Inhibition of human NCI-H2342 cell growth in a cell viability assay.

NCI-H292 = assay: cells; settings: Homo sapiens;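 note: growth inhibition of NCI-H292 cells, read out with a cell viability assay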
Description: SANGER: Inhibition of human NCI-H292 cell growth in a cell viability assay.

NCI-H322M = assay: cells; settings: Homo sapiens;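 note: cell viability assay measuring inhibition of growth of human NCI-H322M cells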
Description: SANGER: Inhibition of human NCI-H322M cell growth in a cell viability assay.

NCI-H345 = assay: cells; settings: Homo sapiens;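 note: growth inhibition of NCI-H345 cells measured with a cell viability assay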
Description: SANGER: Inhibition of human NCI-H345 cell growth in a cell viability assay.

NCI-H630 = assay: cells; settings: Homo sapiens;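 note: growth inhibition of NCI-H630 cells, read out with a cell viability assay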
Description: SANGER: Inhibition of human NCI-H630 cell growth in a cell viability assay.

SNU-16 = assay: cells; settings: Homo sapiens;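 note: growth inhibition of human SNU-16 cells, determined with a cell viability readout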
Description: SANGER: Inhibition of human NCI-SNU-16 cell growth in a cell viability assay.

P12-Ichikawa = assay: cells; settings: Homo sapiens
P31-FUJ = assay: cells; settings: Homo sapiens;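 note: growth inhibition of P31-FUJ cells, read out with a viability assay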
Description: SANGER: Inhibition of human P31-FUJ cell growth in a cell viability assay.

PA-1 = assay: cells; settings: Homo sapiens;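 note: IC50 for suppression of PA-1 cell proliferation, determined with a cell viability read-out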
Description: SANGER: Inhibition of human PA-1 cell growth in a cell viability assay.

PANC-03-27 = assay: cells; settings: Homo sapiens
Description: SANGER: Inhibition of human PANC-03-27 cell growth in a cell viability assay.

PC-14 = assay: cells; settings: Homo sapiens;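 note: cell viability assay measuring inhibition of PC-14 cell growth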
Description: SANGER: Inhibition of human PC-14 cell growth in a cell viability assay.

PLC-PRF-5 = assay: cells; settings: Homo sapiens;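 note: growth inhibition of human PLC-PRF-5 cells, read out with a viability assay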
Description: SANGER: Inhibition of human PLC-PRF-5 cell growth in a cell viability assay.

RCM-1 = assay: cells; settings: Homo sapiens;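 note: growth inhibition of the RCM-1 line, determined with a cell viability readout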
Description: SANGER: Inhibition of human RCM-1 cell growth in a cell viability assay.

RPMI-2650 = assay: cells; settings: Homo sapiens
Description: SANGER: Inhibition of human RPMI-2650 cell growth in a cell viability assay.

RVH-421 = assay: cells; settings: Homo sapiens
Description: SANGER: Inhibition of human RVH-421 cell growth in a cell viability assay.

SCC-25 = assay: cells; settings: Homo sapiens;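 note: growth inhibition of SCC-25 cells, measured with a cell viability assay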
Description: SANGER: Inhibition of human SCC-25 cell growth in a cell viability assay.

SK-MEL-30 = assay: cells; settings: Homo sapiens;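 note: growth inhibition of SK-MEL-30 cells, determined with a cell viability assay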
Description: SANGER: Inhibition of human SK-MEL-30 cell growth in a cell viability assay.

SN12C = assay: cells; settings: Homo sapiens;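 note: growth inhibition of human SN12C cells, measured by a cell viability assay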
Description: SANGER: Inhibition of human SN12C cell growth in a cell viability assay.

SU-DHL-1 = assay: SANGER: Inhibition of human SU-DHL-1 cell growth in a cell viability assay.
T-24 = assay: cells; settings: Homo sapiens;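 note: growth inhibition of T-24 cells, read out with a cell viability assay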
Description: SANGER: Inhibition of human T-24 cell growth in a cell viability assay.

23132-87 = assay: cells; settings: Homo sapiens
Description: SANGER: Inhibition of human 23132-87 cell growth in a cell viability assay.

647-V = assay: cells; settings: Homo sapiens;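 note: growth inhibition of 647-V cells, read out with a cell viability assay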
Description: SANGER: Inhibition of human 647-V cell growth in a cell viability assay.

A2058 = assay: cells; settings: Homo sapiens;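 note: reduction of A2058 cell growth, read out with a viability assay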
Description: SANGER: Inhibition of human A2058 cell growth in a cell viability assay.

A253 cell line = assay: cells; settings: Homo sapiens;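 note: growth inhibition of A253 cells, read out with a cell viability assay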
Description: SANGER: Inhibition of human A253 cell growth in a cell viability assay.

A673 = assay: cells; settings: Homo sapiens;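 note: growth inhibition of human A673 cells, read out through a cell viability assay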
Description: SANGER: Inhibition of human A673 cell growth in a cell viability assay.

ARH-77 = assay: cells; settings: Homo sapiens;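 note: growth inhibition of ARH-77 cells, read out by a cell viability assay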
Description: SANGER: Inhibition of human ARH-77 cell growth in a cell viability assay.

BXPC-3 = assay: cells; settings: Homo sapiens;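 note: growth inhibition of human BxPC-3 cells, read out by a cell viability assay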
Description: SANGER: Inhibition of human BxPC-3 cell growth in a cell viability assay.

C-33-A = assay: cells; settings: Homo sapiens;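 note: cell viability assay measuring growth inhibition of C-33-A cells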
Description: SANGER: Inhibition of human C-33-A cell growth in a cell viability assay.

CAL-51 = assay: cells; settings: Homo sapiens;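 note: human CAL-51 cell line, growth inhibition read out via a cell viability assay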
Description: SANGER: Inhibition of human CAL-51 cell growth in a cell viability assay.

CAL-62 = assay: cells; settings: Homo sapiens;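 note: growth inhibition of CAL-62 cells, read out with a cell viability assay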
Description: SANGER: Inhibition of human CAL-62 cell growth in a cell viability assay.

TYK-nu = assay: cells; settings: Homo sapiens;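 note: growth inhibition of human TYK-nu cells, read out by a cell viability assay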
Description: SANGER: Inhibition of human TYK-nu cell growth in a cell viability assay.

UMUC3 = assay: cells; settings: Homo sapiens;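 note: growth inhibition of human UM-UC-3 cells, read out with a cell viability assay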
Description: SANGER: Inhibition of human UM-UC-3 cell growth in a cell viability assay.

For `O=c1[nH]c2ccccc2n1C1CCN(Cc2ccc(-c3nc4cc5[nH]cnc5cc4nc3-c3ccccc3)cc2)CC1`, the IC50 (Ca-Ski) was > 2560 nM, the IC50 (Calu-1) was > 2560 nM and the IC50 (D-247MG) was > 2560 nM. The IC50 (D-336MG) was > 2560 nM, the IC50 (Daudi) was > 2560 nM and the IC50 (EFE-184) was > 2560 nM. For the same molecule, the IC50 (EFO-27) was > 2560 nM, the IC50 (HCC1937) was > 2560 nM and the IC50 (HT-1376) was > 2560 nM. For the same molecule, the IC50 (HT-29) was 2430 nM, the IC50 (HuP-T3) was > 2560 nM and the IC50 (IGR-1) was > 2560 nM. The IC50 (KARPAS-422) was > 2560 nM, the IC50 (KYSE-510) was 2210 nM and the IC50 (KYSE-520 cell line) was > 2560 nM. The IC50 (L-540) was > 2560 nM, the IC50 (LB996-RCC) was > 2560 nM and the IC50 (LU-165) was > 2560 nM. The IC50 (MDA-MB-134-VI) was > 2560 nM, the IC50 (MDA-MB-468) was > 2560 nM and the IC50 (MG-63) was > 2560 nM. For the same molecule, the IC50 (NCI-H1694) was > 2560 nM, the IC50 (NCI-H1703) was > 2560 nM and the IC50 (NCI-H1734) was > 2560 nM. The IC50 (NCI-H1755) was 1060 nM, the IC50 (NCI-H2009) was > 2560 nM and the IC50 (NCI-H2030) was 1940 nM. The IC50 (NCI-H2052) was > 2560 nM, the IC50 (NCI-H2141) was > 2560 nM and the IC50 (NCI-H2342) was 938 nM. The IC50 (NCI-H292) was > 2560 nM, the IC50 (NCI-H322M) was > 2560 nM and the IC50 (NCI-H345) was > 2560 nM. The IC50 (NCI-H630) was > 2560 nM, the IC50 (SNU-16) was > 2560 nM and the IC50 (P12-Ichikawa) was > 2560 nM. The IC50 (P31-FUJ) was > 2560 nM, the IC50 (PA-1) was > 2560 nM and the IC50 (PANC-03-27) was > 2560 nM. For the same molecule, the IC50 (PC-14) was > 2560 nM, the IC50 (PLC-PRF-5) was > 2560 nM and the IC50 (RCM-1) was > 2560 nM. The IC50 (RPMI-2650) was > 2560 nM, the IC50 (RVH-421) was > 2560 nM and the IC50 (SCC-25) was > 2560 nM. The IC50 (SK-MEL-30) was > 2560 nM, the IC50 (SN12C) was > 2560 nM and the IC50 (SU-DHL-1) was > 2560 nM. The IC50 (T-24) was > 2560 nM, the IC50 (23132-87) was 759 nM and the IC50 (647-V) was > 2560 nM. The IC50 (A2058) was > 2560 nM, the IC50 (A253 cell line) was > 2560 nM and the IC50 (A673) was > 2560 nM. For the same molecule, the IC50 (ARH-77) was > 2560 nM, the IC50 (BXPC-3) was 2220 nM and the IC50 (C-33-A) was > 2560 nM. For the same molecule, the IC50 (CAL-51) was > 2560 nM, the IC50 (CAL-62) was > 2560 nM and the IC50 (TYK-nu) was > 2560 nM. For the same molecule, the IC50 (UMUC3) was > 2560 nM.
`CC(C)=CC[C@@H](O)C1=CC(=O)c2c(O)ccc(O)c2C1=O` [SHIKONIN] gave an IC50 (Ca-Ski) of 650 nM, an IC50 (Calu-1) of 1230 nM and an IC50 (D-247MG) of 1660 nM. It also gave an IC50 (D-336MG) of 1750 nM, an IC50 (Daudi) of 3440 nM and an IC50 (EFE-184) of 544 nM. For the same molecule, the IC50 (EFO-27) was 330 nM, the IC50 (HCC1937) was 1660 nM and the IC50 (HT-1376) was 915 nM. The IC50 (HT-29) was 645 nM, the IC50 (HuP-T3) was 834 nM and the IC50 (IGR-1) was 154 nM. The IC50 (KARPAS-422) was > 16000 nM, the IC50 (KYSE-510) was 253 nM and the IC50 (KYSE-520 cell line) was 598 nM. For the same molecule, the IC50 (L-540) was 4900 nM, the IC50 (LB996-RCC) was > 16000 nM and the IC50 (LU-165) was 634 nM. The IC50 (MDA-MB-134-VI) was 709 nM, the IC50 (MDA-MB-468) was 967 nM and the IC50 (MG-63) was 257 nM. It also gave an IC50 (NCI-H1694) of 840 nM, an IC50 (NCI-H1703) of 2300 nM and an IC50 (NCI-H1734) of 6900 nM. The IC50 (NCI-H1755) was > 16000 nM, the IC50 (NCI-H2009) was 20.5 nM and the IC50 (NCI-H2030) was 563 nM. The IC50 (NCI-H2052) was 61.1 nM, the IC50 (NCI-H2141) was 1710 nM and the IC50 (NCI-H2342) was 134 nM. The IC50 (NCI-H292) was 853 nM, the IC50 (NCI-H322M) was > 16000 nM and the IC50 (NCI-H345) was 990 nM. The IC50 (NCI-H630) was 1300 nM, the IC50 (SNU-16) was > 16000 nM and the IC50 (P12-Ichikawa) was 1390 nM. The IC50 (P31-FUJ) was 2070 nM, the IC50 (PA-1) was 201 nM and the IC50 (PANC-03-27) was 167 nM. The IC50 (PC-14) was 1510 nM, the IC50 (PLC-PRF-5) was 1820 nM and the IC50 (RCM-1) was 2000 nM. It also gave an IC50 (RPMI-2650) of 375 nM, an IC50 (RVH-421) of 1470 nM and an IC50 (SCC-25) of 383 nM. For the same molecule, the IC50 (SK-MEL-30) was 695 nM, the IC50 (SN12C) was 1760 nM and the IC50 (SU-DHL-1) was 499 nM. It also gave an IC50 (T-24) of 2460 nM, an IC50 (23132-87) of 2110 nM and an IC50 (647-V) of 359 nM. The IC50 (A2058) was 919 nM, the IC50 (A253 cell line) was < 62.5 nM and the IC50 (A673) was 1220 nM. It also gave an IC50 (ARH-77) of 873 nM, an IC50 (BXPC-3) of 334 nM and an IC50 (C-33-A) of 913 nM. It also gave an IC50 (CAL-51) of 20.9 nM, an IC50 (CAL-62) of 1280 nM and an IC50 (TYK-nu) of 1150 nM. For the same molecule, the IC50 (UMUC3) was 967 nM.

Source: ChEMBL document CHEMBL1201861, “Genomics of Drug Sensitity in Cancer screening data, Wellcome Trust Sanger Institute”
